For orientation: IC50 means the concentration needed to halve the response being measured.

This experiment has as its target T1, Zcchc11 enzyme (Homo sapiens, UniProt Q5TAX3).
T1 construct: made in house; host or cells: HEK293 cells (Zcchc11); E. coli Rosetta II (LIN28A)
T1 sequence (Q5TAX3 212-1420): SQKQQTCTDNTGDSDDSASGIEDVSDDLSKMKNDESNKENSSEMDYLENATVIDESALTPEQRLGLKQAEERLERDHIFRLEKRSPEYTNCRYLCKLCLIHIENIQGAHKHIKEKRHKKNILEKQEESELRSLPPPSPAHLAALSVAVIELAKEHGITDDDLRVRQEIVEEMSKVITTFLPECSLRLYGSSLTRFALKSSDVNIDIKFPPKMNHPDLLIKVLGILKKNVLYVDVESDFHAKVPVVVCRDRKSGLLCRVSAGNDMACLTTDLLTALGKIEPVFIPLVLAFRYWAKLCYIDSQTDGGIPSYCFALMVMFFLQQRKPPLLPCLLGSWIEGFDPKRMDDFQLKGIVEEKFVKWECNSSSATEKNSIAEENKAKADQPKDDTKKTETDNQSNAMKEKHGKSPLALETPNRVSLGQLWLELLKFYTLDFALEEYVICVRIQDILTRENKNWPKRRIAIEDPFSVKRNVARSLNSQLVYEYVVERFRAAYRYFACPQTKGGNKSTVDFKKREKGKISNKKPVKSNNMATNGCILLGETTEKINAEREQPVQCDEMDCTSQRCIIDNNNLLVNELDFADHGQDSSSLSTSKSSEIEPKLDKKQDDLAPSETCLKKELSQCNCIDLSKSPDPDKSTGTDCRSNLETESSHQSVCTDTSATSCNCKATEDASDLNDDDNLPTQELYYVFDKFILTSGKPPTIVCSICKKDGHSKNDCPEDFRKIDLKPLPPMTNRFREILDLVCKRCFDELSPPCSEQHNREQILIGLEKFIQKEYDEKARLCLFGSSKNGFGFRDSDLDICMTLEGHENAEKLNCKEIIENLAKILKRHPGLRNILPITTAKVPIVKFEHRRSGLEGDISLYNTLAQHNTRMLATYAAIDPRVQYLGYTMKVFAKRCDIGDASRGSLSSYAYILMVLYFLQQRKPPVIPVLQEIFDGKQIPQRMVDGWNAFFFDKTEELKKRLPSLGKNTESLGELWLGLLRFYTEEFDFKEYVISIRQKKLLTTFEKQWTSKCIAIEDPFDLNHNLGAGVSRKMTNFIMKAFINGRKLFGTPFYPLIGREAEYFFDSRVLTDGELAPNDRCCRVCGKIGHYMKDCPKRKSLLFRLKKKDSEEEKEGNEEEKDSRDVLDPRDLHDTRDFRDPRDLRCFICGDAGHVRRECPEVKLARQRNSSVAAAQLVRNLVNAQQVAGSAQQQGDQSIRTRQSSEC
As to the kind of experiment: TUTase assay (Zcchc11 assay, Lin28a-dependent polyuridylation of pre-let-7). It counts as biochemical. The conditions noted are these: Lin28a-dependent Zcchc11 (Z11) TUTase activity; read-out: Potency Lin28a-dep Z11 IC50. The procedure, abridged: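 Readout: time-dependent quench of 5′-fluorescein pre-let-7 (2 nM) as 3′-rhodamine A20 probe anneals to poly(U) tails. Enzyme 0.2 nM Zcchc11 (res. 212-1420), LIN28A 10 nM, UTP 5 uM; pH 7.3 HEPES, 150 mM KCl, 5 mM MgCl2, RT. 4-parameter IC50; 100% = DMSO, 0% = no UTP.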
Regarding `CC(C)[C@H]1COC(=O)N1C[C@H]1CCCN1c1cc2c(cc1Cl)c(=O)c(C(=O)O)cn2C1(C)CC1` [Compound 140, 6-chloro-7-((R)-2-(((S)-4-isopropyl-2-oxooxazolidin-3-yl)methyl)pyrrolidin-1-yl)-1-(1-methylcyclo-propyl)-4-oxo-1,4-dihydro-quinoline-3-carboxylic acid], the half-maximal inhibitory concentration (IC50) is greater than 50000 nM.

In the case of `CC(C)[C@@H]1COC(=O)N1C[C@H]1CCCN1c1cc2c(cc1Cl)c(=O)c(C(=O)O)cn2C1(C)CC1` [Compound 141, 6-chloro-7-((R)-2-(((R)-4-isopropyl-2-oxooxazolidin-3-yl)methyl)pyrrolidin-1-yl)-1-(1-methylcyclo-propyl)-4-oxo-1,4-dihydro-quinoline-3-carboxylic acid], the IC50 was greater than 50000 nM.

`O=C(O)c1cn(-c2cccc(F)c2F)c2cc(N3CCC[C@@H]3COc3ccccn3)c(F)cc2c1=O` [Compound 142, (R)-1-(2,3-difluorophenyl)-6-fluoro-4-oxo-7-(2-((pyridin-2-yloxy)methyl)pyrrolidin-1-yl)-1,4-dihydro-quinoline-3-carboxylic acid]: the IC50 was 1000 to 10000 nM.

For the compound `O=C(O)c1cn(-c2cc(F)ccc2F)c2cc(N3CCC[C@@H]3COc3ccccn3)c(F)cc2c1=O` [Compound 143, (R)-1-(2,5-difluorophenyl)-6-fluoro-4-oxo-7-(2-((pyridin-2-yloxy)methyl)pyrrolidin-1-yl)-1,4-dihydro-quinoline-3-carboxylic acid], the 50% inhibitory concentration (IC50) was in the range of 1000 to 10000 nM.

For `O=C(O)c1cn(-c2cc(F)cc(F)c2)c2cc(N3CCC[C@@H]3COc3ccccn3)c(F)cc2c1=O` [Compound 144, (R)-1-(3,5-difluorophenyl)-6-fluoro-4-oxo-7-(2-((pyridin-2-yloxy)methyl)pyrrolidin-1-yl)-1,4-dihydro-quinoline-3-carboxylic acid], the half-maximal inhibitory concentration (IC50) lay in the range of 1000 to 10000 nM.

Turning to `O=C(O)c1cn(-c2ccc(Cl)cc2)c2cc(N3CCC[C@@H]3COc3ccccn3)c(F)cc2c1=O` [Compound 145, (R)-1-(4-chlorophenyl)-6-fluoro-4-oxo-7-(2-((pyridin-2-yloxy)methyl)pyrrolidin-1-yl)-1,4-dihydro-quinoline-3-carboxylic acid], the IC50 was no more than 1000 nM.

On to `COc1cccc(-n2cc(C(=O)O)c(=O)c3cc(F)c(N4CCC[C@@H]4COc4ccccn4)cc32)c1` [Compound 146, (R)-6-fluoro-1-(3-methoxy-phenyl)-4-oxo-7-(2-((pyridin-2-yloxy)methyl)pyrrolidin-1-yl)-1,4-dihydro-quinoline-3-carboxylic acid], for which the IC50 was no more than 1000 nM.

Regarding `COc1ccc(-n2cc(C(=O)O)c(=O)c3cc(F)c(N4CCC[C@@H]4COc4ccccn4)cc32)cc1` [Compound 147, (R)-6-fluoro-1-(4-methoxy-phenyl)-4-oxo-7-(2-((pyridin-2-yloxy)methyl)pyrrolidin-1-yl)-1,4-dihydro-quinoline-3-carboxylic acid], the 50% inhibitory concentration (IC50) was no more than 1000 nM.

`CS(=O)(=O)Nc1ccc(-n2cc(C(=O)O)c(=O)c3cc(F)c(N4CCC[C@@H]4COc4ccccn4)cc32)cc1` [Compound 148, (R)-6-fluoro-1-(4-(methyl-sulfonamido)phenyl)-4-oxo-7-(2-((pyridin-2-yloxy)methyl)pyrrolidin-1-yl)-1,4-dihydro-quinoline-3-carboxylic acid]: the 50% inhibitory concentration (IC50) is no more than 1000 nM.

Take `O=C(O)c1cn(-c2ccc(F)c(F)c2)c2cc(N3CCC[C@@H]3COc3ccccn3)c(F)cc2c1=O` [Compound 149, (R)-1-(3,4-difluorophenyl)-6-fluoro-4-oxo-7-(2-((pyridin-2-yloxy)methyl)pyrrolidin-1-yl)-1,4-dihydro-quinoline-3-carboxylic acid]: the half-maximal inhibitory concentration (IC50) lay in the range of 1000 to 10000 nM.

For the compound `O=C(O)c1cn(-c2ccc(F)cn2)c2cc(N3CCC[C@@H]3COc3ccccn3)c(F)cc2c1=O` [Compound 150, (R)-6-fluoro-1-(5-fluoropyridin-2-yl)-4-oxo-7-(2-((pyridin-2-yloxy)methyl)pyrrolidin-1-yl)-1,4-dihydro-quinoline-3-carboxylic acid], the IC50 lay within 1000 to 10000 nM.

Consider `O=C(O)c1cn(-c2ccc(F)cc2)c2cc(N3CCC[C@@H]3COc3ccccn3)c(F)cc2c1=O` [Compound 151, (R)-6-fluoro-1-(4-fluorophenyl)-4-oxo-7-(2-((pyridin-2-yloxy)methyl)pyrrolidin-1-yl)-1,4-dihydro-quinoline-3-carboxylic acid], for which the IC50 was no more than 1000 nM.

Take `O=C(O)c1cn(-c2ccc(O)cc2Cl)c2cc(N3CCC[C@@H]3COc3ccccn3)c(F)cc2c1=O` [Compound 152, (R)-1-(2-chloro-4-hydroxy-phenyl)-6-fluoro-4-oxo-7-(2-((pyridin-2-yloxy)methyl)pyrrolidin-1-yl)-1,4-dihydro-quinoline-3-carboxylic acid]: the IC50 lay within 1000 to 10000 nM.

As for `O=C(O)c1cn(-c2cc(F)ccc2Cl)c2cc(N3CCC[C@@H]3COc3ccccn3)c(F)cc2c1=O` [Compound 153, (R)-1-(2-chloro-5-fluorophenyl)-6-fluoro-4-oxo-7-(2-((pyridin-2-yloxy)methyl)pyrrolidin-1-yl)-1,4-dihydro-quinoline-3-carboxylic acid], the IC50 fell in the range of 1000 to 10000 nM.

Regarding `Cc1cccc(F)c1-n1cc(C(=O)O)c(=O)c2cc(F)c(N3CCC[C@@H]3COc3ccccn3)cc21` [Compound 154, (R)-6-fluoro-1-(2-fluoro-6-methylphenyl)-4-oxo-7-(2-((pyridin-2-yloxy)methyl)pyrrolidin-1-yl)-1,4-dihydro-quinoline-3-carboxylic acid], the 50% inhibitory concentration (IC50) lay in the range of 1000 to 10000 nM.

As to `Cc1cccc(-n2cc(C(=O)O)c(=O)c3cc(F)c(N4CCC[C@@H]4COc4ccccn4)cc32)c1` [Compound 155, (R)-6-fluoro-4-oxo-7-(2-((pyridin-2-yloxy)methyl)pyrrolidin-1-yl)-1-(m-tolyl)-1,4-dihydro-quinoline-3-carboxylic acid], the IC50 is no more than 1000 nM.

Turning to `Cc1ccc(-n2cc(C(=O)O)c(=O)c3cc(F)c(N4CCC[C@@H]4COc4ccccn4)cc32)c(C)c1` [Compound 156, (R)-1-(2,4-dimethyl-phenyl)-6-fluoro-4-oxo-7-(2-((pyridin-2-yloxy)methyl)pyrrolidin-1-yl)-1,4-dihydro-quinoline-3-carboxylic acid], the IC50 lay in the range of 1000 to 10000 nM.

For the compound `COc1ccc(Cl)c(-n2cc(C(=O)O)c(=O)c3cc(F)c(N4CCC[C@@H]4COc4ccccn4)cc32)c1` [Compound 157, (R)-1-(2-chloro-5-methoxy-phenyl)-6-fluoro-4-oxo-7-(2-((pyridin-2-yloxy)methyl)pyrrolidin-1-yl)-1,4-dihydro-quinoline-3-carboxylic acid], the IC50 was 1000 to 10000 nM.

As to `COc1ccc(F)c(-n2cc(C(=O)O)c(=O)c3cc(F)c(N4CCC[C@@H]4COc4ccccn4)cc32)c1` [Compound 158, (R)-6-fluoro-1-(2-fluoro-5-methoxy-phenyl)-4-oxo-7-(2-((pyridin-2-yloxy)methyl)pyrrolidin-1-yl)-1,4-dihydro-quinoline-3-carboxylic acid], the concentration for half-maximal inhibition (IC50) fell in the range of 1000 to 10000 nM.

Regarding `CC(=O)Nc1ccc(-n2cc(C(=O)O)c(=O)c3cc(F)c(N4CCC[C@@H]4COc4ccccn4)cc32)cc1` [Compound 159, (R)-1-(4-acetamido-phenyl)-6-fluoro-4-oxo-7-(2-((pyridin-2-yloxy)methyl)pyrrolidin-1-yl)-1,4-dihydro-quinoline-3-carboxylic acid], the IC50 was no more than 1000 nM.

Turning to `O=C(O)c1cn(-c2ccccc2CO)c2cc(N3CCC[C@@H]3COc3ccccn3)c(F)cc2c1=O` [Compound 160, (R)-6-fluoro-1-(2-(hydroxy-methyl)phenyl)-4-oxo-7-(2-((pyridin-2-yloxy)methyl)pyrrolidin-1-yl)-1,4-dihydro-quinoline-3-carboxylic acid], the 50% inhibitory concentration (IC50) is 1000 to 10000 nM.

On to `CCc1ccccc1-n1cc(C(=O)O)c(=O)c2cc(F)c(N3CCC[C@@H]3COc3ccccn3)cc21` [Compound 161, (R)-1-(2-ethylphenyl)-6-fluoro-4-oxo-7-(2-((pyridin-2-yloxy)methyl)pyrrolidin-1-yl)-1,4-dihydro-quinoline-3-carboxylic acid], for which the 50% inhibitory concentration (IC50) lay in the range of 1000 to 10000 nM.
